In patent publication US9200005B2, “Inhibitor compounds of phosphodiesterase type 10A” (AbbVie Deutschland GmbH & Co. KG, priority 2013, dated 2015):

Key:
[1] = Determination of the microsomal half-life / microsomal clearance, rat liver microsomes; format: in vitro ADME; conditions: 0.5 μM test substance, 0.25 mg of microsomal protein/mL, NADPH, 37° C.
Method: (§1) b) Determination of the Microsomal Half-Life:
(§2) The metabolic stability of the compounds of the invention was determined in the following assay.
(§3) The test substances were incubated in a concentration of 0.5 μM as follows:
(§4) 0.5 μM test substance are preincubated together with liver microsomes from different species (from rat, human or other species) (0.25 mg of microsomal protein/mL) in 0.05 M potassium phosphate buffer of pH 7.4 in microtiter plates at 37° C. for 5 min. The reaction is started by adding NADPH (1 mg/mL). After 0, 5, 10, 15, 20 and 30 min, 50 μl aliquots are removed, and the reaction is immediately stopped and cooled with the same volume of acetonitrile. The samples are frozen until analyzed. The remaining concentration of undegraded test substance is determined by MSMS. The half-life (T½) is determined from the gradient of the signal of test substance/unit time plot, it being possible to calculate the half-life of the test substance, assuming first order kinetics, from the decrease in the concentration of the compound with time. The microsomal clearance (mCl) is calculated from mCl=ln 2/T½/(content of microsomal protein in mg/mL)×1000 [mL/min/mg] (modified from references: Di, The Society for Biomoleculur Screening, 2003, 453-462; Obach, DMD, 1999 vol 27. N 11, 1350-1359).

[2] = Determination of the microsomal half-life / microsomal clearance, human liver microsomes; format: in vitro ADME; conditions: 0.5 μM test substance, 0.25 mg of microsomal protein/mL, NADPH, 37° C.
Method: as §1, §2, §3, §4

Compound | Rat mCl [1] | Human mCl [2] | Rat mCl ([1]; bis(trifluoroacetate))
Cn1nc(-c2ccc(OC(F)(F)F)cc2)c2scc(-c3ccncc3)c2c1=O [Example 101, 5-methyl-3-(pyridin-4-yl)-7-[4-(trifluoromethoxy)phenyl]thieno[2,3-d]pyridazin-4(5H)-one] | ++ (++: <100 μl min^−1 mg^−1) | ++ (++: <100 μl min^−1 mg^−1) | 
CC(C)c1cccc(COc2nn(C)c(=O)c3c(-c4ccncc4)csc23)c1.O=C(O)C(F)(F)F [Example 65, 5-methyl-7-{[3-(propan-2-yl)benzyl]oxy}-3-(pyridin-4-yl)thieno[2,3-d]pyridazin-4(5H)-one trifluoroacetate] | + (+: 100-220 μl min^−1 mg^−1) | ∘ (∘ not avialable or >220 μl min^−1 mg^−1) | 
Cn1nc(-c2ccncc2)c2scc(-c3ccc(F)cc3)c2c1=O [Example 8, 3-(4-fluorophenyl)-5-methyl-7-(pyridin-4-yl)thieno[2,3-d]pyridazin-4(5H)-one] | + (+: 100-220 μl min^−1 mg^−1) | + (+: 100-220 μl min^−1 mg^−1) | 
Cn1nc(-c2ccncc2)c2scc(-c3cnn(Cc4ccccc4)c3)c2c1=O.O=C(O)C(F)(F)F.O=C(O)C(F)(F)F [Example 41, 3-(1-benzyl-1H-pyrazol-4-yl)-5-methyl-7-(pyridin-4-yl)thieno[2,3-d]pyridazin-4(5H)-one bis(trifluoroacetate)] | ++ (++: <100 μl min^−1 mg^−1) | + (+: 100-220 μl min^−1 mg^−1) | 
Cn1nc(OC2CCCCC2)c2scc(-c3ccncc3)c2c1=O.O=C(O)C(F)(F)F [Example 53, 7-(cyclohexyloxy)-5-methyl-3-(pyridin-4-yl)thieno[2,3-d]pyridazin-4(5H)-one trifluoroacetate] | + (+: 100-220 μl min^−1 mg^−1) | ++ (++: <100 μl min^−1 mg^−1) | 
Cn1nc(OCC2CCC(F)(F)CC2)c2scc(-c3ccncc3)c2c1=O [Example 66, 7-[(4,4-difluorocyclohexyl)methoxy]-5-methyl-3-(pyridin-4-yl)thieno[2,3-d]pyridazin-4(5H)-one] | ++ (++: <100 μl min^−1 mg^−1) | ++ (++: <100 μl min^−1 mg^−1) | 
Cn1nc(-c2ccncc2)c2scc(CN3CCOCC3)c2c1=O [Example 13, 5-methyl-3-(morpholin-4-ylmethyl)-7-(pyridin-4-yl)thieno[2,3-d]pyridazin-4(5H)-one] | + (+: 100-220 μl min^−1 mg^−1) | + (+: 100-220 μl min^−1 mg^−1) | 
Cn1nc(-c2ccncc2)c2scc(-c3cccnc3)c2c1=O.O=C(O)C(F)(F)F [Example 15, 5-methyl-3-(pyridin-3-yl)-7-(pyridin-4-yl)thieno[2,3-d]pyridazin-4(5H)-one bis(trifluoroacetate)] |  | ++ (++: <100 μl min^−1 mg^−1) | ∘ (∘ not avialable or >220 μl min^−1 mg^−1)

More lines, main results first:

Rat mCl [1] | Human mCl [2] | Compound | Rat mCl ([1]; bis(trifluoroacetate))
++ (++: <100 μl min^−1 mg^−1) | ++ (++: <100 μl min^−1 mg^−1) | 3-(4-fluorophenyl)-5-methyl-7-(pyridin-4-yl)thieno[2,3-d]pyridazin-4(5H)-one [Example 48] | 
++ (++: <100 μl min^−1 mg^−1) | ++ (++: <100 μl min^−1 mg^−1) | Cn1nc(OCC2CCNCC2)c2scc(-c3ccncc3)c2c1=O.O=C(O)C(F)(F)F [Example 125, 5-methyl-7-(piperidin-4-ylmethoxy)-3-(pyridin-4-yl)thieno[2,3-d]pyridazin-4(5H)-one bis(trifluoroacetate)] | 
+ (+: 100-220 μl min^−1 mg^−1) | + (+: 100-220 μl min^−1 mg^−1) | Cn1nc(-c2ccncc2)c2scc(-c3cc4ccccc4s3)c2c1=O.O=C(O)C(F)(F)F [Example 23, 3-(1-benzothiophen-2-yl)-5-methyl-7-(pyridin-4-yl)thieno[2,3-d]pyridazin-4(5H)-one trifluoroacetate] | 
++ (++: <100 μl min^−1 mg^−1) | ++ (++: <100 μl min^−1 mg^−1) | Cn1nc(-c2ccncc2)c2scc(N3CCN(C(=O)OC(C)(C)C)CC3)c2c1=O [Example 5, tert-butyl 4-[5-methyl-4-oxo-7-(pyridin-4-yl)-4,5-dihydrothieno[2,3-d]pyridazin-3-yl]piperazine-1-carboxylate] | 
